Experimental data from US9440943B2, “Tricyclic sulfone compounds and methods of making and using same” (Zafgen, Inc., priority 2012, dated 2016).

Molecular target: T1, Human recombinant MetAP2 (Homo sapiens, UniProt P50579)
T1 construct: made in house; host or cells: Sf9 insect cells
Test: recombinant human MetAP2 inhibition assay (MAS substrate, amino acid oxidase/Amplex red fluorescence)
Type: biochemical
Conditions: manganese enzyme, 30 minutes at 25° C., pH 7.5, 0.75 mM MAS substrate, 1% DMSO
Protocol: Compounds are tested for their capacity to inhibit recombinant human MetAP2 activity using the following assay.
Human recombinant MetAP2 expressed in Sf9 cells followed by affinity purification and EDTA treatment to remove endogenous active site cation was dialysed against MnCl2 to produce the manganese enzyme used in the assay. The assay was carried out for 30 minutes at 25° C. in 50 mM HEPES buffer containing 100 mM NaCl, at pH 7.5. The presence of 0.75 mM Methionine-Alanine-Serine (MAS) substrate and 50 μg/mL amino acid oxidase using a dilution of purified MetAP2 gives >3-fold signal:noise. Cleavage of the substrate by MetAP2 and oxidation of free methionine by amino acid oxidase was detected and quantified using fluorescence generated by Amplex red (10-acetyl-3,7-dihydroxyphenoxazine) in combination with horseradish peroxidase which detects H2O2 released during the oxidation step. The fluorescent signal was detected using a multiwell fluorimeter. Compounds were diluted in DMSO prior to addition to assay buffer, the final DMSO concentration in the assay being 1%.
The IC50 is defined as the concentration at which a given compound achieves 50% inhibition of control. IC50 values are calculated using the XLfit software package (version 2.0.5).

T1 sequence (P50579 whole entry): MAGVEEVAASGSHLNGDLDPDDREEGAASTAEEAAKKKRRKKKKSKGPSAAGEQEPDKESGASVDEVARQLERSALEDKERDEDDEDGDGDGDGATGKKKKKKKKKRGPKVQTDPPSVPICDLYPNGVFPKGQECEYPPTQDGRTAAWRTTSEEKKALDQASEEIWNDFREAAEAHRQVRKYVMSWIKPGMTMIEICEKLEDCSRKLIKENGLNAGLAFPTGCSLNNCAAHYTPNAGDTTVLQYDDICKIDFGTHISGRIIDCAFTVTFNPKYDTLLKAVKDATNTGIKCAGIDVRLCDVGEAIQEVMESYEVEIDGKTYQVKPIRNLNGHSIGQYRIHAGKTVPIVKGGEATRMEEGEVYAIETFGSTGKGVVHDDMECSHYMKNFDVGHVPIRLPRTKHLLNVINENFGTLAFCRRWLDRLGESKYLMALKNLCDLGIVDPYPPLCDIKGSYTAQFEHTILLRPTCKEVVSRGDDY

Structure (SMILES): CCN(CC)C/C=C\c1cc(F)ccc1S(=O)(=O)Cc1ccc2c(c1C(=O)O)OC[C@H]1C[C@@H]21 (racemic) [Example 1, Cis-(1aRS,7bSR)-5-[2-((Z)-3-diethylaminoprop-1-enyl)-4-fluoro-benzenesulfonylmethyl]-1,1a,2,7b-tetrahydrocyclopropa[c]chromene-4-carboxylic acid]
- IC50: > 100 nM

Structure (SMILES): CCN(CC)C/C=C\c1cc(F)ccc1S(=O)(=O)Cc1ccc2c(c1C(=O)O)OC[C@@H]1C[C@H]21 [Example 2]
- IC50: > 100 nM
